# According to patent US20200392108A1, “ANTIBODY-DRUG CONJUGATES AND RELATED COMPOUNDS, COMPOSITIONS AND METHODS” (Magenta Therapeutics, Inc., priority 2011, published 2020):
# Like-named read-outs stand apart in the source and are kept apart here. Square brackets hold non-standard residues; d marks the D form. Peptide text beside a SMILES is read from it. Dolaproine = CO[C@@H]([C@@H]1CCCN1)[C@@H](C)C(=O)O; Dil = CC[C@H](C)[C@H](NC)[C@@H](CC(=O)O)OC; NMeV = CN[C@H](C(=O)O)C(C)C
# System: BT474 (HER2+) cell line
# Assay: Standard cellular cytotoxicity assay, BT474
# Assay type: cell-based, human
# Source text: The cytotoxicity of tubulysins T1 and T2 was compared to the cytotoxicity of MMAF using the BT474 (HER2+) cell line in a standard cellular cytotoxicity assay.
SMILES,"IC50 (Homo sapiens, BT-474) [nM]",IC50 [nM]
CC[C@H](C)[C@H](NC(=O)[C@H]1CCCCN1C)C(=O)N(C)[C@H](C[C@@H](OC(C)=O)c1nc(C(=O)N[C@@H](Cc2ccccc2)C[C@H](C)C(=O)O)cs1)C(C)C [T2],< 0.1,
"CC[C@H](C)[C@@H]([C@@H](CC(=O)N1CCC[C@H]1[C@H](OC)[C@@H](C)C(=O)N[C@@H](Cc1ccccc1)C(=O)O)OC)N(C)C(=O)[C@@H](NC(=O)[C@@H](NC)C(C)C)C(C)C [MMAF, monomethylauristatin F] (H-[NMeV]V[Dil][Dolaproine]F-OH)",,93
CC[C@H](C)[C@H](NC(=O)[C@H]1CCCCN1C)C(=O)N(C)[C@H](C[C@@H](OC(C)=O)c1nc(C(=O)O)cs1)C(C)C [T1],11,
